Experimental data reported in patent publication US20220041583A1, “IMMUNOMODULATORS, COMPOSITIONS AND METHODS THERE OF” (BETTA PHARMACEUTICALS CO., LTD, priority 2018, published 2022).
Counter-ions that a name gives are not always drawn.

Molecular target: T1, PD-1/PD-L1 (Homo sapiens, UniProt Q9NZQ7)
T1 construct: Recombinant human PD-L1 protein (19-238) with a His-tag at the C-terminus; purchased AcroBiosystems PD1-H5229 (PD-L1); PD1-H5257 (PD-1)
Experiment: PD-1/PD-L1 homogenous time-resolved fluorescence (HTRF) binding assay
Conditions: Table 6, class symbols
Procedure: Resolved Fluorescence (HTRF) Binding Assay
The assays were conducted in a standard black 384-well polystyrene plate with a final volume of 20 μL. Inhibitors were first serially diluted in DMSO and then added to the plate wells before the addition of other reaction components. The final concentration of DMSO in the assay was 1%. The assays were carried out at 25° C. in the PBS buffer (pH 7.4) with 0.05% Tween-20 and 0.1% BSA. Recombinant human PD-L1 protein (19-238) with a His-tag at the C-terminus was purchased from AcroBiosy stems (PD1-H5229). Recombinant human PD-1 protein (25-167) with Fc tag at the C-terminus was also purchased from AcroBiosystems (PD1-H5257). PD-L1 and PD-1 proteins were diluted in the assay buffer and 10 μL was added to the plate well. Plates were centrifuged and proteins were preincubated with inhibitors for 40 min. The incubation was followed by the addition of 10 μL of HTRF detection buffer supplemented with Europium cryptate-labeled anti-human IgG (PerkinElmer-AD0212) specific for Fc and anti-His antibody conjugated to SureLight®-Allophycocyanin (APC, PerkinElmer-AD0059H). After centrifugation, the plate was incubated at 25° C. for 60 min. Before reading on a PHERAstar FS plate reader (665 nm/620 nm ratio). Final concentrations in the assay were […] PD1, 10 nM PD-L1, 1 nM europium anti-human IgG and 20 nM anti-His-Allophycocyanin. IC50 determination was performed by fitting the curve of percent control activity versus the log of the inhibitor concentration using the GraphPad Prism 5.0 software.

T1 sequence (Q9NZQ7 19-238): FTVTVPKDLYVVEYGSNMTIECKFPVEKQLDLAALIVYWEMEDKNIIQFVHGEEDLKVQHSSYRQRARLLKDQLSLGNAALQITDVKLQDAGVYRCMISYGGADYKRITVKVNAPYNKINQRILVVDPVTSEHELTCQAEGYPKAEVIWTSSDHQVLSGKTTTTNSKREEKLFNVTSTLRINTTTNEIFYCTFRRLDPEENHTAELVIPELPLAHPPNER

`Cc1c(-c2ccccc2)cccc1-c1nc2cc(CN[C@@H](Cc3ccc(O)cc3)C(=O)O)c(OC(F)F)cc2o1` [Example 32, ((6-(difluoromethoxy)-2-(2-methyl-[1,1′-biphenyl]-3-yl)benzo[d]oxazol-5-yl)methyl)-L-tyrosine hydrochloride] and `CC[C@H](NCc1cc2nc(-c3cccc(-c4ccccc4)c3C)oc2cc1OC(F)F)C(=O)O` [Example 40, (S)-2-(((6-(difluoromethoxy)-2-(2-methyl-[1,1′-biphenyl]-3-yl)benzo[d]oxazol-5-yl)methyl)amino)butanoic acid] fall in the same range of IC50: 0.0001 to 0.01 µM for the first, 0.0001 to 0.01 µM for the second.

First: Cc1c(-c2ccccc2)cccc1-c1nc2cc(CN[C@@H](C)C(=O)O)c(OC(F)F)cc2o1 [Example 33, ((6-(difluoromethoxy)-2-(2-methyl-[1,1′-biphenyl]-3-yl)benzo[d]oxazol-5-yl)methyl)-L-alanine]
Second: Cc1c(-c2ccccc2)cccc1-c1nc2cc(CN[C@H](C)C(=O)O)c(OC(F)F)cc2o1 [Example 34, ((6-(difluoromethoxy)-2-(2-methyl-[1,1′-biphenyl]-3-yl)benzo[d]oxazol-5-yl)methyl)-D-alanine]
The IC50 of the first is lower: 0.0001 to 0.01 µM for the first, 0.01 to 0.1 µM for the second. The first is the more potent here.

Compared with `Cc1c(-c2ccccc2)cccc1-c1nc2cc(CNCC(=O)O)c(OC(F)F)cc2o1` [Example 35, ((6-(difluoromethoxy)-2-(2-methyl-[1,1′-biphenyl]-3-yl)benzo[d]oxazol-5-yl)methyl)glycine], `CC[C@@H](NCc1cc2nc(-c3cccc(-c4ccccc4)c3C)oc2cc1OC(F)F)C(=O)O` [Example 41, (R)-2-(((6-(difluoromethoxy)-2-(2-methyl-[1,1′-biphenyl]-3-yl)benzo[d]oxazol-5-yl)methyl)amino)butanoic acid] is higher in IC50: 0.0001 to 0.01 µM for the first, 0.01 to 0.1 µM for the second.

First: Cc1c(-c2ccccc2)cccc1-c1nc2cc(CN3CCC[C@@H]3C(=O)O)c(OC(F)F)cc2o1 [Example 37, ((6-(difluoromethoxy)-2-(2-methyl-[1,1′-biphenyl]-3-yl)benzo[d]oxazol-5-yl)methyl)-D-proline]
Second: N#Cc1c(-c2ccccc2)cccc1-c1nc2cc(CN3CCC[C@H]3C(=O)O)c(OC(F)F)cc2o1 [Example 44, ((2-(2-cyano-[1,1′-biphenyl]-3-yl)-6-(difluoromethoxy)benzo[d]oxazol-5-yl)methyl)-L-proline]
The IC50 of the first is higher: 0.01 to 0.1 µM for the first, 0.0001 to 0.01 µM for the second. The second is the more potent here.

`Cc1c(-c2ccccc2)cccc1-c1nc2cc(CN3CCCCC3CO)c(OC(F)F)cc2o1` (centres unmarked) [Example 38, (1-((6-(difluoromethoxy)-2-(2-methyl-[1,1′-biphenyl]-3-yl)benzo[d]oxazol-5-yl)methyl)piperidin-2-yl)methanol] and `Cc1c(-c2ccccc2)cccc1-c1nc2cc(CN3CCCC3(C)C(=O)O)c(OC(F)F)cc2o1` (centres unmarked) [Example 46, 1-((6-(difluoromethoxy)-2-(2-methyl-[1,1′-biphenyl]-3-yl)benzo[d]oxazol-5-yl)methyl)-2-methylpyrrolidine-2-carboxylic acid] fall in the same range of IC50: 0.0001 to 0.01 µM for the first, 0.0001 to 0.01 µM for the second.

Compared with `N#Cc1ccccc1-c1cccc(-c2nc3cc(CN4CCC[C@H]4C(=O)O)c(OC(F)F)cc3o2)c1C#N` [Example 45, ((2-(2,2′-dicyano-[1,1′-biphenyl]-3-yl)-6-(difluoromethoxy)benzo[d]oxazol-5-yl)methyl)-L-proline], `Cc1c(-c2ccc3c(c2)OCCO3)cccc1-c1nc2cc(CN3CCC[C@H]3C(=O)O)c(OC(F)F)cc2o1` [Example 47, ((6-(difluoromethoxy)-2-(3-(2,3-dihydrobenzo[b][1,4]dioxin-6-yl)-2-methylphenyl)benzo[d]oxazol-5-yl)methyl)-L-proline] is lower in IC50: 0.01 to 0.1 µM for the first, 0.0001 to 0.01 µM for the second. The second is the more potent here.

Same assay, conditions: Table 6, numeric values

In order of falling IC50:
1. Cc1c(-c2ccccc2)cccc1-c1nc2cc(CN[C@H](CO)C(=O)O)c(OC(F)F)cc2o1 [Example 42, ((6-(difluoromethoxy)-2-(2-methyl-[1,1′-biphenyl]-3-yl)benzo[d]oxazol-5-yl)methyl)-D-serine]  0.0034 µM
2. Cc1c(-c2ccccc2)cccc1-c1nc2cc(CN[C@@H](CO)C(=O)O)c(OC(F)F)cc2o1 [Example 43, ((6-(difluoromethoxy)-2-(2-methyl-[1,1′-biphenyl]-3-yl)benzo[d]oxazol-5-yl)methyl)-L-serine]  0.0018 µM
